Experimental data from paper PMC11972452 (ACS infectious diseases, 2024).

Biological target: OXA-58 (Acinetobacter baumannii, UniProt Q2TR58)
Assay: time-resolved X-ray crystallography of the acyl-enzyme complex
Format: biochemical
Settings: read-out: Ki

Sequence of OXA-58 (Q2TR58 19-280): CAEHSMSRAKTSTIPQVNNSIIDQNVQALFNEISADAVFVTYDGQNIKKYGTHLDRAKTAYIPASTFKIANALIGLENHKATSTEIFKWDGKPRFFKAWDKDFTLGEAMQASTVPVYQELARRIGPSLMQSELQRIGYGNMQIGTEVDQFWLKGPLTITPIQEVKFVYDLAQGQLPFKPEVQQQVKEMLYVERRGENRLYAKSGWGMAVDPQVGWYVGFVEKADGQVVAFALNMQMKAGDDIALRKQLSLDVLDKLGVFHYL

In the case of `CC(O)[C@H]1C(=O)N2C(C(=O)O)=C(S[C@H]3CNC(C(=O)N(C)C)C3)C[C@]12C` (stereo partly shown) [NA-1-157, NA-1–157], the KI (inactivation) is reported as 1900 ± 300 nM.
